{"source": "patent US10385108B2", "about": "“Peptide analogs of alpha-melanocyte stimulating hormone” (Genzyme Corporation, priority 2008, dated 2019)", "note": "Where a SMILES comes first, the peptide text is derived from it. [ ]: non-standard residue; d: D form. The star is where a group is joined. dBta = N[C@H](Cc1csc2ccccc12)C(=O)O; d3Pal = N[C@H](Cc1cccnc1)C(=O)O; d2Thi = N[C@H](Cc1cccs1)C(=O)O; NH(CH2)3Ph = c1ccc(CCCN*)cc1; dNle = CCCC[C@@H](N)C(=O)O"}
{"biological_target": "MC1R (Homo sapiens, UniProt Q01726)", "sequence (Q01726 whole entry)": "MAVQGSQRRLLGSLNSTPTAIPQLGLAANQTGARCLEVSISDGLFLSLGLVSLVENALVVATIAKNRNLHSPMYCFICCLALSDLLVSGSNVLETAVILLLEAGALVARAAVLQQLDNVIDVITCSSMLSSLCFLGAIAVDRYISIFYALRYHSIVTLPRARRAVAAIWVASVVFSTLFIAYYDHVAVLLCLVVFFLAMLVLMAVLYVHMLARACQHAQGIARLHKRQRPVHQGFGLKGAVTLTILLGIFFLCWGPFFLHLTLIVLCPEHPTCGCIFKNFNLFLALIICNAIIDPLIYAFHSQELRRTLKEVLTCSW", "assay": "Competitive binding with 125I-NDP-MSH, HEK293 membrane preparations, MC1R;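 further: Read-out: receptor-bound radioligand retained by filtration and counted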", "conditions": "not given"}
{"smiles": "CC(C)[C@@H](N)C(=O)N1CCC[C@@H]1C(=O)N[C@H](CCCCN)C(=O)NCC(=O)N[C@H](Cc1c[nH]c2ccccc12)C(=O)N[C@H](CCCNC(=N)N)C(=O)N[C@H](Cc1ccccc1)C(=O)N[C@H](Cc1c[nH]cn1)C(=O)NCCCc1ccccc1", "note": "[compound 847, vpkGwrfh] (H-[dV][dP][dK]G[dW][dR][dF][dH]-{NH(CH2)3Ph})", "affinity for MC1R compared with parent peptide (in words)": "no increase in the affinity"}
{"biological_target": "MC1R (Homo sapiens, UniProt Q01726)", "assay": "Competitive binding with 125I-NDP-MSH, HEK293 membrane preparations, MC1R;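 further: Read-out: receptor-bound radioligand retained by filtration and counted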", "conditions": "Ki MC1R, competition with 125I-NDP-MSH", "units": {"Ki": "nM"}}
{"smiles": "CC(C)[C@@H](N)C(=O)N1CCC[C@@H]1C(=O)N[C@H](CCCCN)C(=O)NCC(=O)N[C@H](Cc1c[nH]c2ccccc12)C(=O)N[C@H](CCCNC(=N)N)C(=O)N[C@H](Cc1ccccc1)C(=O)N[C@H](Cc1c[nH]cn1)C(=O)O", "note": "[847int, vpkGwrfh] (H-[dV][dP][dK]G[dW][dR][dF][dH]-OH)", "Ki": 150}
{"smiles": "CSCC[C@@H](NC(=O)[C@@H](CCC(=O)O)NC(=O)[C@@H](Cc1c[nH]cn1)NC(=O)[C@@H](Cc1ccccc1)NC(=O)[C@@H](CCCNC(=N)N)NC(=O)[C@@H](Cc1ccccc1)NC(=O)CNC(=O)[C@@H](CCCCN)NC(=O)[C@H]1CCCN1C(=O)[C@H](NC(C)=O)C(C)C)C(=O)N[C@H](CO)C(=O)N[C@H](Cc1ccc(O)cc1)C(=O)N[C@H](CO)C(N)=O", "note": "[862-b, vpkGfrfhemsys] (Ac-[dV][dP][dK]G[dF][dR][dF][dH][dE][dM][dS][dY][dS]-NH2)", "Ki": 128}
{"smiles": "CSCC[C@@H](NC(=O)[C@@H](C)NC(=O)[C@@H](Cc1c[nH]cn1)NC(=O)[C@@H](Cc1ccccc1)NC(=O)[C@@H](CCCNC(=N)N)NC(=O)[C@@H](Cc1c[nH]c2ccccc12)NC(=O)CNC(=O)[C@@H](CCCCN)NC(=O)[C@H]1CCCN1C(=O)[C@H](NC(C)=O)C(C)C)C(=O)N[C@H](CO)C(=O)N[C@H](Cc1ccc(O)cc1)C(=O)N[C@H](CO)C(N)=O", "note": "[compound 808, vpkGwrfhamsys] (Ac-[dV][dP][dK]G[dW][dR][dF][dH][dA][dM][dS][dY][dS]-NH2)", "Ki": 2.5}
{"smiles": "CCCCCCCCCCCCCCCCCC(=O)N[C@@H](Cc1c[nH]cn1)C(=O)N[C@H](Cc1ccccc1)C(=O)N[C@@H](CCCNC(=N)N)C(=O)N[C@@H](Cc1c[nH]c2ccccc12)C(N)=O", "note": "[compound 820, (Stearyl) HfRW]", "Ki": 1.3}
{"smiles": "CC(C)[C@@H](N)C(=O)N1CCC[C@@H]1C(=O)N[C@H](CCCCN)C(=O)NCC(=O)N[C@H](Cc1c[nH]c2ccccc12)C(=O)N[C@H](CCCNC(=N)N)C(=O)N[C@H](Cc1ccccc1)C(=O)N[C@H](Cc1c[nH]cn1)C(=O)NCCCc1ccccc1", "note": "[compound 847, vpkGwrfh] (H-[dV][dP][dK]G[dW][dR][dF][dH]-{NH(CH2)3Ph})", "Ki": "104 ± 72"}
{"smiles": "CSCC[C@@H](NC(=O)[C@@H](CCC(=O)O)NC(=O)[C@@H](Cc1c[nH]cn1)NC(=O)[C@@H](Cc1ccccc1)NC(=O)[C@@H](CCCNC(=N)N)NC(=O)[C@@H](Cc1c[nH]c2ccccc12)NC(=O)CNC(=O)[C@@H](CCCN)NC(=O)[C@H]1CCCN1C(=O)[C@H](NC(C)=O)C(C)C)C(=O)N[C@H](CO)C(=O)N[C@H](Cc1ccc(O)cc1)C(=O)N[C@H](CO)C(N)=O", "note": "[compound 857, vp(D-Ornithine)Gwrfhemsys]", "Ki": 3}
{"smiles": "CCCC[C@@H](NC(=O)[C@H]1CCCN1C(=O)[C@H](NC(C)=O)C(C)C)C(=O)NCC(=O)N[C@H](Cc1c[nH]c2ccccc12)C(=O)N[C@H](CCCNC(=N)N)C(=O)N[C@H](Cc1ccccc1)C(=O)N[C@H](Cc1c[nH]cn1)C(=O)N[C@H](CCC(=O)O)C(=O)N[C@H](CCSC)C(=O)N[C@H](CO)C(=O)N[C@H](Cc1ccc(O)cc1)C(=O)N[C@H](CO)C(N)=O", "note": "[compound 858, vp(D-Norleucine)Gwrfhemsys] (Ac-[dV][dP][dNle]G[dW][dR][dF][dH][dE][dM][dS][dY][dS]-NH2)", "Ki": 18}
{"smiles": "CSCC[C@@H](NC(=O)[C@@H](CCC(=O)O)NC(=O)[C@@H](Cc1c[nH]cn1)NC(=O)[C@@H](Cc1ccccc1)NC(=O)[C@@H](CCCNC(=N)N)NC(=O)[C@@H](Cc1csc2ccccc12)NC(=O)CNC(=O)[C@@H](CCCCN)NC(=O)[C@H]1CCCN1C(=O)[C@H](NC(C)=O)C(C)C)C(=O)N[C@H](CO)C(=O)N[C@H](Cc1ccc(O)cc1)C(=O)N[C@H](CO)C(N)=O", "note": "[compound 859, vpkG(3-benzothienyl-D-Alanine)rfhemsys] (Ac-[dV][dP][dK]G[dBta][dR][dF][dH][dE][dM][dS][dY][dS]-NH2)", "Ki": 206}
{"smiles": "CSCC[C@@H](NC(=O)[C@@H](CCC(=O)O)NC(=O)[C@@H](Cc1c[nH]cn1)NC(=O)[C@@H](Cc1ccccc1)NC(=O)[C@@H](CCCNC(=N)N)NC(=O)[C@@H](Cc1c[nH]c2ccc(O)cc12)NC(=O)CNC(=O)[C@@H](CCCCN)NC(=O)[C@H]1CCCN1C(=O)[C@H](NC(C)=O)C(C)C)C(=O)N[C@H](CO)C(=O)N[C@H](Cc1ccc(O)cc1)C(=O)N[C@H](CO)C(N)=O", "note": "[compound 860, vpkG(5-hydroxy-D-Trp)rfhemsys]", "Ki": 96}
{"smiles": "COc1ccc2[nH]cc(C[C@@H](NC(=O)CNC(=O)[C@@H](CCCCN)NC(=O)[C@H]3CCCN3C(=O)[C@H](NC(C)=O)C(C)C)C(=O)N[C@H](CCCNC(=N)N)C(=O)N[C@H](Cc3ccccc3)C(=O)N[C@H](Cc3c[nH]cn3)C(=O)N[C@H](CCC(=O)O)C(=O)N[C@H](CCSC)C(=O)N[C@H](CO)C(=O)N[C@H](Cc3ccc(O)cc3)C(=O)N[C@H](CO)C(N)=O)c2c1", "note": "[compound 861, vpkG(5-methoxy-D-Trp)rfhemsys]", "Ki": 75}
{"smiles": "CSCC[C@@H](NC(=O)[C@@H](CCC(=O)O)NC(=O)[C@@H](Cc1c[nH]cn1)NC(=O)[C@@H](Cc1ccccc1)NC(=O)[C@@H](Cc1c[nH]cn1)NC(=O)[C@@H](Cc1c[nH]c2ccccc12)NC(=O)CNC(=O)[C@@H](CCCCN)NC(=O)[C@H]1CCCN1C(=O)[C@H](NC(C)=O)C(C)C)C(=O)N[C@H](CO)C(=O)N[C@H](Cc1ccc(O)cc1)C(=O)N[C@H](CO)C(N)=O", "note": "[compound 865, vpkGwhfhemsys] (Ac-[dV][dP][dK]G[dW][dH][dF][dH][dE][dM][dS][dY][dS]-NH2)", "Ki": 2300}
{"smiles": "CSCC[C@@H](NC(=O)[C@@H](CCC(=O)O)NC(=O)[C@@H](Cc1c[nH]cn1)NC(=O)[C@@H](Cc1cccnc1)NC(=O)[C@@H](CCCNC(=N)N)NC(=O)[C@@H](Cc1c[nH]c2ccccc12)NC(=O)CNC(=O)[C@@H](CCCCN)NC(=O)[C@H]1CCCN1C(=O)[C@H](NC(C)=O)C(C)C)C(=O)N[C@H](CO)C(=O)N[C@H](Cc1ccc(O)cc1)C(=O)N[C@H](CO)C(N)=O", "note": "[compound 867, vpkGwr(3-pyridyl-D-Alanine)hemsys] (Ac-[dV][dP][dK]G[dW][dR][d3Pal][dH][dE][dM][dS][dY][dS]-NH2)", "Ki": 480}
{"smiles": "CSCC[C@@H](NC(=O)[C@@H](CCC(=O)O)NC(=O)[C@@H](Cc1c[nH]cn1)NC(=O)[C@@H](Cc1cccs1)NC(=O)[C@@H](CCCNC(=N)N)NC(=O)[C@@H](Cc1c[nH]c2ccccc12)NC(=O)CNC(=O)[C@@H](CCCCN)NC(=O)[C@H]1CCCN1C(=O)[C@H](NC(C)=O)C(C)C)C(=O)N[C@H](CO)C(=O)N[C@H](Cc1ccc(O)cc1)C(=O)N[C@H](CO)C(N)=O", "note": "[compound 868, vpkGwr(2-thienyl-D-Alanine)hemsys] (Ac-[dV][dP][dK]G[dW][dR][d2Thi][dH][dE][dM][dS][dY][dS]-NH2)", "Ki": 5.4}
{"smiles": "CSCC[C@@H](NC(=O)[C@@H](CCC(=O)O)NC(=O)[C@@H](Cc1c[nH]cn1)NC(=O)[C@@H](Cc1ccc([N+](=O)[O-])cc1)NC(=O)[C@@H](CCCNC(=N)N)NC(=O)[C@@H](Cc1c[nH]c2ccccc12)NC(=O)CNC(=O)[C@@H](CCCCN)NC(=O)[C@H]1CCCN1C(=O)[C@H](NC(C)=O)C(C)C)C(=O)N[C@H](CO)C(=O)N[C@H](Cc1ccc(O)cc1)C(=O)N[C@H](CO)C(N)=O", "note": "[compound 871, vpkGwr(4-Nitro-D-Phe)hemsys]", "Ki": 324}
{"biological_target": "MC1R (Homo sapiens, UniProt Q01726)", "assay": "Competitive binding with 125I-NDP-MSH, HEK293 membrane preparations, MC1R;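 further: Read-out: receptor-bound radioligand retained by filtration and counted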", "conditions": "relative to the unmodified tetrapeptide", "units": {"improvement of binding to MC1R by stearyl addition to the core tetrapeptide": "fold"}}
{"smiles": "CCCCCCCCCCCCCCCCCC(=O)N[C@@H](Cc1c[nH]cn1)C(=O)N[C@H](Cc1ccccc1)C(=O)N[C@@H](CCCNC(=N)N)C(=O)N[C@@H](Cc1c[nH]c2ccccc12)C(N)=O", "note": "[compound 820, (Stearyl) HfRW]", "improvement of binding to MC1R by stearyl addition to the core tetrapeptide": 80}
